Columns and labels:
[1] = biological target: purified LSD1 (Homo sapiens, UniProt O60341); assay: LSD1 direct screening assay (Epigentek inhibitory screening kit); assay type: biochemical; conditions: direct incubation with purified LSD1, Epigentek kit; read-out: IC50, inhibition of LSD1
Description: Fluorescence was measured using a CLARIOstar Plus Microplate Reader (BMG Labtech, Ortenberg, Germany) at excitation and emission wavelengths of 530 nm and 590 nm, respectively (Ex/Em = 530/590 nm).

[2] = test system: T1, LSD1; assay: LSD1 activity in nuclear extracts of BJ cells stimulated with DEX; assay type: cell-based, human; conditions: DEX 50 μM 72 h, then TCP 5 μM or OLP, HT, HTA 50 μM for 48 h
T1 construct: nuclear proteins extracted from the BJ cultures were directly assayed for LSD1 activity; endogenous in cells; host or cells: BJ human foreskin fibroblasts (nuclear extract, DEX-stimulated)
Description: Histone demethylase LSD1 activity assay
4µL of nuclear extracts containing 5µg protein was added to designated strip wells with stably
captured LSD1 substrate (H3K4me2), followed by an additional 26µL of H3K4me2 (HG3)
substrate diluted in assay buffer (HG2). In no enzyme control wells, the 4µL of nuclear
extracts was replaced with 4µL of assay buffer. Blank wells contained 30µL of assay buffer.
A standard curve was generated by adding 1µL of standard (HG4) at incrementally increasing
concentrations (0.1-10ng/µL) to 29µL of assay buffer in designated standard wells. After all
wells were loaded appropriately, the assay plate was incubated away from light at room
temperature for 60 minutes. Following incubation, contents were aspirated and wells were
washed three times with 150µL of wash buffer (HG1). 50µL of capture antibody (HG5)
diluted at a 1:1000 ratio was then added to all wells before incubating at room temperature
for 60 minutes on a rotating platform. Well contents were then aspirated and washed four
times with 150µL of wash buffer. 50µL of detection antibody (HG6) diluted at a 1:1000 ration
was then added to each well. Assay plate was then incubated for a final time at room
temperature for 30 minutes. Well contents were aspirated again, followed by six washes with
150µL wash buffer. 50µL of fluoro-developer (HG7) was then added into each well and
allowed to develop away from light for 1-5 minutes. Fluorescence was then read on a
CLARIOstar Microplate Reader (BMG Labtech, Ortenberg Germany) at Ex/Em =

[3] = test system: H3K4 mono-methylation; assay: H3K4 mono-methylation in BJ cells (Western blotting); assay type: cell-based, human; conditions: 50 μM, 48 h, compared to untreated cells; effects more pronounced with DEX
Description: As described in the Supplementary Information, nuclear proteins extracted from the BJ cultures were directly assayed for LSD1 activity (Epigentek P-3076, Farmingdale, NY, USA). Fluorescence was read on a CLARIOstar Microplate Reader (BMG Labtech, Ortenberg, Germany) at Ex/Em = 530/590 nm (Figure S4). Histone proteins were extracted from the treated cultures and were analysed through Western blotting. The mono-methylation status of lysine on histone 3 (H3K4) was determined via immunodetection (Table S6).
100µL of Nuclear Extraction Buffer containing 0.2µL 1M DTT and 0.4µL PIC was then added to the remaining nuclei-containing pellets. Full resuspension was achieved through multiple rounds of vigorous vortexing and ice incubations (to maintain protein integrity). Once the entire pellet was visibly resuspended in NEB, tubes were centrifuged at 16,000g for 10 minutes. The resulting supernatant containing the nuclear extract fraction was transferred to clean 0.5mL tubes and stored at -80°C.
Acid extraction of histone proteins
Cells were washed in 10mL of pre-chilled PBS (1X) and detached from flask surface via mechanical disruption using a cell scraper. Cell solution was then transferred into a 15mL tube and centrifuged at 150g for 10 minutes. Supernatant was then discarded and the remaining cell pellet resuspended in 0.5mL PBS (1X) and transferred into a 1.5mL microcentrifuge tube. Cells were then centrifuged at 9400g for 20 seconds, after which the supernatant was removed and discarded. The remaining pellet was then briefly resuspended in 600µL of acid extraction lysis buffer (10mM KCl, 10mM HEPES, […]) containing cOmplete™ Mini Protease Inhibitor Cocktail (Sigma-Aldrich, Roche 11836153001, MO USA) and 0.3µL 1M DTT. This will cause cells to pre-swell, resulting in a reduced amount of PBS (1X) remaining in the microcentrifuge tube that may deter maximal cell lysis capacity. Cells were then centrifuged at 9400g for 20 seconds with the resultant supernatant aspirated and discarded. […]

[4] = test system: T2, MAO-A; assay: MAO-A activity assay in corticosteroid-stimulated BJ cells; assay type: cell-based, human; conditions: then 50 μM compound 24 h
T2 construct: endogenous in cells; host or cells: BJ human foreskin fibroblasts stimulated with DEX or HC
Description: (§1) The BJ cells were subsequently incubated with 10 μM HC or 100 μM DEX to stimulate MAO expression. […] The untreated BJ cells received normal growth medium. The cells were collected, homogenised, and analysed through Western blotting where the expression of MAO-A/B was determined through immunodetection of protein subtypes.
(§2) Activity assays were commercially sourced from BioVision (Abcam, BioVision ab241031, Waltham, MA, USA) and were performed according to manufacturer’s instructions. The treatment groups were plated in duplicate on a black, flat 96-well microplate. The cells were homogenised in assay buffer using a microtube mixer at 4 °C and centrifuged at 10,000× g for 10 min. A Bradford assay was performed to determine the total protein concentration within each cell pellet (200 μg/well for BJ cells, 40 μg/well for hESC-derived neurons). Approximately 40 μL of supernatant was loaded into wells along with 10 μL of either […], or assay buffer for total MAO activity. A H2O2 standard was pipetted as supplied and 50 μL of reaction mix was pipetted into all wells. Using a CLARIOstar Plus Microplate Reader, (BMG Labtech, Ortenberg, Germany), fluorescence was measured kinetically at 25 °C for 60 min with Ex/Em = 535/587 nm.

[5] = test system: T3, MAO-B; assay: MAO-B activity assay in corticosteroid-stimulated BJ cells; assay type: cell-based, human; conditions: then 50 μM compound 24 h
T3 construct: endogenous in cells; host or cells: BJ human foreskin fibroblasts stimulated with DEX or HC
Description: as §1, §2

[6] = test system: total MAO; assay: Total MAO activity assay in corticosteroid-stimulated BJ cells; assay type: cell-based, human; conditions: then 50 μM compound 24 h
Description: as §1, §2

[7] = test system: T2, MAO-A; assay: MAO-A activity assay in hESC-derived neurons stimulated with ATRA; assay type: cell-based, human; conditions: 1 μM ATRA 24 h, then TCP 5 μM, OLC 50 μM or OLP 50 μM for 24 h
Description: (§3) An in vitro model of MDD was designed for stem cell-derived neuronal cells through incubation of 1 μM all-trans retinoic acid (Sigma-Aldrich PHR1187, St. Louis, MO, USA). All cell treatments were conducted in duplicate and replicated using independently differentiating neuronal plates.
as §2

[8] = test system: total MAO; assay: Total MAO activity assay in hESC-derived neurons stimulated with ATRA; assay type: cell-based, human; conditions: 1 μM ATRA 24 h, then TCP 5 μM, OLC 50 μM or OLP 50 μM for 24 h
Description: as §3, §2

COC(=O)[C@H](O)CC(=O)OCCc1ccc(O)c(O)c1 [OLP, oleohydroxypyretol]
IC50 [1]: 800 nM | LSD1 activity in BJ cultures stimulated with DEX [2]: significant reduction | baseline levels of H3K4 mono-methylation in BJ cells [3]: increased | MAO-A activity in BJ cells ([4]; 10 μM HC 5 days): downregulate | MAO-A activity in BJ cells ([4]; 100 μM DEX 7 days): downregulate | MAO-B activity in BJ cells ([5]; 10 μM HC 5 days): downregulate | MAO-B activity in BJ cells ([5]; 100 μM DEX 7 days): downregulate | total MAO activity in BJ cells ([6]; 10 μM HC 5 days): downregulate | total MAO activity in BJ cells ([6]; 100 μM DEX 7 days): downregulate | MAO-A activity in hESC-derived neurons [7]: significantly reduced | total MAO activity in hESC-derived neurons [8]: significantly reduced

Reference: article PMC11173677, “Identification and Evaluation of Olive Phenolics in the Context of Amine Oxidase Enzyme Inhibition and Depression: In Silico Modelling and In Vitro Validation” (Molecules, 2024)
